These are literature values, as cited in patent publication US20170326066A1, “METHOD OF TREATING HYPERTENSION” (Ezra Pharma LLC, priority 2016, published 2017).

A word on the Tmax: it is the time from dosing to the highest level. Turning to `CCCCC(=O)N(Cc1ccc(-c2ccccc2-c2nnn[nH]2)cc1)[C@H](C(=O)O)C(C)C` [valsartan], the “peak plasma concentration reduced to” value (by 12 hours) is on record as “approximately 65%”. For the same molecule, the “time by which plasma levels reach very low level” value (following Cmax) is 10 to 12 h. For the same molecule, for the setting “in vivo”, the half-life result is listed as “about 6 hours”. Also, where the note is “oral administration”, the Tmax is 2 to 4 h, the absolute bioavailability result is reported as “about 25%” and the “absolute bioavailability (range)” value is recorded as 10-35%.
